Usually melting point stands for the temperature, or range, at which the solid turns liquid. What is called Kb is the affinity of an antagonist, worked out from how it opposes an agonist. A lower Kb goes with a more potent antagonist.

One data set concerns the target T1, human EAAT3 (Homo sapiens, UniProt P43005).
T1 construct: expressed in transfected cells; host or cells: HEK-293
T1 sequence (P43005 1-524): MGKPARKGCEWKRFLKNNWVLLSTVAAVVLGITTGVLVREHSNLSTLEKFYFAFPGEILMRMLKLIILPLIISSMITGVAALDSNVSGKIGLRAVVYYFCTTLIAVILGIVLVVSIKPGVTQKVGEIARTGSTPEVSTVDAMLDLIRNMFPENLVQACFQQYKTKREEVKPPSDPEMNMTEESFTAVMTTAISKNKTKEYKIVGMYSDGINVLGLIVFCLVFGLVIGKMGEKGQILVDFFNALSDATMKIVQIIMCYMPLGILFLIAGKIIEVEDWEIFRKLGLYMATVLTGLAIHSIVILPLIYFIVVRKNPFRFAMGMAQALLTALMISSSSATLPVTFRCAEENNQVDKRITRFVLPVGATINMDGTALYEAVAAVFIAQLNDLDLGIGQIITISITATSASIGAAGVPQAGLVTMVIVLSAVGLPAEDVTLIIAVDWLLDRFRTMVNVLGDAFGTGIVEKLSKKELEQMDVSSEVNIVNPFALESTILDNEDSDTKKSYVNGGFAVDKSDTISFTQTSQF
The data set is described as follows: FLIPR Membrane Potential (FMP) assay. The class given is cell-based. To be noted: HEK-293 cells stably expressing human EAAT3; L-glutamate as agonist at EC80; antagonist applied 15 min before; Kb by Cheng-Prusoff from IC50. The procedure:
The FLIPR Membrane Potential (FMP) assay
HEK-293 cells stably expressing human EAAT3 were seeded at 55 000 cells/well in growth medium (DMEM glutamate free (Invitrogen 11960-044), 1% Pen Strep (10 ml/l GIBCO BRL N^o 15140-023), 10% FCS non dialysed heat inactivated, 5 mg/l puromycin) in poly-D-lysine treated 96-well black microtiter plates with clear-bottom. After 24 h, the growth medium was removed and 100 μl/well of Krebs buffer (140 mM NaCl, 4.7 mM KCl, 2.5 mM CaCl2), 1.2 mM MgCl2, 11 mM HEPES, 10 mM D-glucose, pH=7.4) added. The cells were then loaded by adding 100 μl/well FMP assay dye (FLIPR Membrane Potential assay reagent, Molecular Devices). The 96-well plates were then incubated at 37° C. for 1 h. The depolarization of the cells will cause more dye to enter in the cells, where it will bind to intracellular proteins and lipids and cause an increase in the fluorescence signal. Antagonist potency at human EAAT3 was determined by using L-glutamate as agonist at a concentration which gives 80% of the maximum response. The antagonists were applied 15 min before the application of the agonist L-glutamate. The assays were performed at room temperature and measurements done by using a Fluorometric Imaging Plate Reader (FLIPR, Molecular Devices) and filter #2. Responses were measured as peak increase in fluorescence minus basal (i.e. fluorescence without addition of L-glutamate). Kb was determined using the Cheng-Prusoff equation Kb=IC50/[1+(A/EC50)], where IC50 is the concentration of the antagonist producing 50% inhibition, A is the concentration of the agonist against which the IC50 is being determined (at EC80) and EC50 is the concentration of the agonist producing 50% […].

In turn, `Cn1nccc1-c1cc(C(=O)NC(C)(C)C)cc(-c2ccc(F)cc2)n1` [Example 2, N-tert-Butyl-2-(4-fluorophenyl)-6-(2-methyl-pyrazol-3-yl)-pyridine-4-carboxamide] came in with a melting point of 161 °C. The Kb on human EAAT3 was 560 nM.
With `CC(C)(C)NC(=O)c1cc(-c2ccc(F)c(Cl)c2)nc(-c2ccnn2C(C)(C)C)c1` [Example 21, N-tert-Butyl-2-(2-tert-butyl-pyrazol-3-yl)-6-(3-chloro-4-fluoro-phenyl)-pyridine-4-carboxamide], the Kb on human EAAT3 turned out to be 110 nM.
Still for that read-out and setting: in the case of `CC(C)(C)NC(=O)c1cc(-c2ccc(C#N)cc2)nc(-c2ccnn2C(C)(C)C)c1` [Example 18, N-tert-Butyl-2-(2-tert-butyl-pyrazol-3-yl)-6-(4-cyano-phenyl)-pyridine-4-carboxamide] it was 89 nM.
For `CC(C)(C)n1nccc1-c1cc(C(=O)NC(C)(C)C(F)(F)F)cc(-c2ccc(F)cc2)n1` [Example 13, 2-(2-tert-Butyl-pyrazol-3-yl)-6-(4-fluorophenyl)-N-(1,1,1-trifluoro-2-methyl-propan-2-yl)-pyridine-4-carboxamide], the melting point stood at 178 °C. In addition, the Kb on human EAAT3 turned out to be 88 nM.
In the same order, the values of `CC(C)n1nccc1-c1cc(C(=O)NC(C)(C)C)cc(-c2ccc(F)cc2)n1` [Example 8, N-tert-Butyl-2-(4-fluorophenyl)-6-(2-propan-2-yl-pyrazol-3-yl)-pyridine-4-carboxamide] are 200 °C and 260 nM.
Taken in the same sequence, the figures for `CC(C)(C)NC(=O)c1cc(-c2ccc(F)cc2)nc(-c2ccnn2C(C)(C)C)c1` [Example 3, N-tert-Butyl-2-(2-tert-butyl-pyrazol-3-yl)-6-(4-fluorophenyl)-pyridine-4-carboxamide] were 226 °C and 65 nM.
Molecule `CC(C)n1nccc1-c1cc(C(=O)NC(C)(C)C)cc(-c2ccc(F)c(Cl)c2)n1` [Example 33, N-tert-Butyl-2-(3-chloro-4-fluorophenyl)-6-(2-propan-2-yl-pyrazol-3-yl)-pyridine-4-carboxamide] displayed a Kb on human EAAT3 of 530 nM.
Take `CC(C)(C)NC(=O)c1cc(-c2ccc(C(F)(F)F)cc2)nc(-c2ccnn2CC2CC2)c1` [Example 42, N-tert-Butyl-2-[2-(cyclopropylmethyl)-pyrazol-3-yl]-6-[4-(trifluoromethyl)-phenyl]-pyridine-4-carboxamide]: the melting point was 203 °C. The molecule also gave a Kb at human EAAT3 of 380 nM.
`CCn1nccc1-c1cc(C(=O)NC(C)(C)C)cc(-c2ccc(Cl)cc2)n1` [Example 39, N-tert-Butyl-2-(4-chlorophenyl)-6-(2-ethyl-pyrazol-3-yl)-pyridine-4-carboxamide] had a melting point of 179 °C. Also, on human EAAT3, the Kb was found to be 510 nM.
In the same order, the values of `CC(C)(C)NC(=O)c1cc(-c2ccc(C(F)(F)F)cc2)nc(-c2ccnn2C(C)(C)C)c1` [Example 5, N-tert-Butyl-2-(2-tert-butyl-pyrazol-3-yl)-6-[4-(trifluoromethyl)-phenyl]-pyridine-4-carboxamide] are 222 °C and 290 nM.
In turn, `CC(C)(C)NC(=O)c1cc(-c2ccc(Cl)cc2)nc(-c2ccnn2C(C)(C)C)c1` [Example 4, N-tert-Butyl-2-(2-tert-butyl-pyrazol-3-yl)-6-(4-chlorophenyl)-pyridine-4-carboxamide] gave a melting point of 204 °C. On human EAAT3, the Kb came to 160 nM.
Molecule `CC(C)(C)NC(=O)c1cc(-c2ccc(Cl)cc2)nc(-c2ccnn2CC2CC2)c1` [Example 40, N-tert-Butyl-2-(4-chlorophenyl)-6-[2-(cyclopropyl-methyl)-pyrazol-3-yl]-pyridine-4-carboxamide] returned a melting point of 218 °C. This molecule also registered a Kb on human EAAT3 of 490 nM.
In turn, `CC(C)(C)NC(=O)c1cc(-c2ccc(C3CC3)cc2)nc(-c2ccnn2C(C)(C)C)c1` [Example 17, N-tert-Butyl-2-(2-tert-butyl-pyrazol-3-yl)-6-(4-cyclopropyl-phenyl)-pyridine-4-carboxamide] had a Kb at human EAAT3 of 110 nM.
In the case of `CC(C)n1nccc1-c1cc(C(=O)NC(C)(C)C)cc(-c2ccc(C3CC3)cc2)n1` [Example 29, N-tert-Butyl-2-(4-cyclopropyl-phenyl)-6-(2-propan-2-yl-pyrazol-3-yl)-pyridine-4-carboxamide], the Kb on human EAAT3 was found to be 560 nM.
The same measure, in the same setting: with `CC(C)n1nccc1-c1cc(C(=O)NC(C)(C)C#N)cc(-c2ccc(F)cc2)n1` [Example 45, N-(2-Cyanopropan-2-yl)-2-(4-fluorophenyl)-6-(2-propan-2-yl-pyrazol-3-yl)-pyridine-4-carboxamide] the figure was 450 nM; with `CC(C)n1nccc1-c1cc(C(=O)NC(C)(C)C)cc(-c2ccc(Cl)c(F)c2)n1` [Example 36, N-tert-Butyl-2-(4-chloro-3-fluorophenyl)-6-(2-propan-2-yl-pyrazol-3-yl)-pyridine-4-carboxamide], 230 nM; with `COc1ccc(-c2cc(C(=O)NC(C)(C)C)cc(-c3ccnn3C(C)C)n2)cc1` [Example 35, N-tert-Butyl-2-(4-methoxy-phenyl)-6-(2-propan-2-yl-pyrazol-3-yl)-pyridine-4-carboxamide], 360 nM.
Still for that read-out and setting: in the case of `CC(C)n1nccc1-c1cc(C(=O)NC(C)(C)C)cc(-c2ccc(C#N)cc2)n1` [Example 30, N-tert-Butyl-2-(4-cyano-phenyl)-6-(2-propan-2-yl-pyrazol-3-yl)-pyridine-4-carboxamide] it was 1870 nM.
The same measure, in the same setting: with `CC(C)n1nccc1-c1cc(C(=O)NC(C)(C)C)cc(-c2ccc(F)c(F)c2)n1` [Example 31, N-tert-Butyl-2-(3,4-difluoro-phenyl)-6-(2-propan-2-yl-pyrazol-3-yl)-pyridine-4-carboxamide] the figure was 240 nM; with `COc1ccc(-c2cc(C(=O)NC(C)(C)C)cc(-c3ccnn3C(C)(C)C)n2)cc1` [Example 23, N-tert-Butyl-2-(2-tert-butyl-pyrazol-3-yl)-6-(4-methoxy-phenyl)-pyridine-4-carboxamide], 85 nM.
On human EAAT3, `CC(C)n1nccc1-c1cc(C(=O)NC2(C)CCS(=O)(=O)C2)cc(-c2ccc(F)cc2)n1` (racemic) [Example 43, (RS)-2-(4-Fluorophenyl)-N-(3-methyl-1,1-dioxothiolan-3-yl)-6-(2-propan-2-yl-pyrazol-3-yl)-pyridine-4-carboxamide] showed a Kb of 530 nM.
As for `CC(C)c1ccc(-c2cc(C(=O)NC(C)(C)C)cc(-c3ccnn3C(C)C)n2)cc1` [Example 32, N-tert-Butyl-2-(4-propan-2-yl-phenyl)-6-(2-propan-2-yl-pyrazol-3-yl)-pyridine-4-carboxamide], at human EAAT3, the Kb is 1180 nM.
Same read-out and setting: in the case of `Cc1ccc(-c2cc(C(=O)NC(C)(C)C)cc(-c3ccnn3C(C)C)n2)cc1F` [Example 38, N-tert-Butyl-2-(3-fluoro-4-methyl-phenyl)-6-(2-propan-2-yl-pyrazol-3-yl)-pyridine-4-carboxamide] it was 400 nM.
Still for that read-out and setting: with `Cc1ccc(-c2cc(C(=O)NC(C)(C)C)cc(-c3ccnn3C(C)C)n2)cc1` [Example 34, N-tert-Butyl-2-(4-methyl-phenyl)-6-(2-propan-2-yl-pyrazol-3-yl)-pyridine-4-carboxamide] the figure was 260 nM; with `Cc1cc(-c2cc(C(=O)NC(C)(C)C)cc(-c3ccnn3C(C)(C)C)n2)ccc1F` [Example 25, N-tert-Butyl-2-(2-tert-butyl-pyrazol-3-yl)-6-(4-fluoro-3-methyl-phenyl)-pyridine-4-carboxamide], 74 nM.

(Values after patent publication US10457663B2, “Pyrazol-pyridine derivatives” (Hoffmann-La Roche Inc., priority 2016, dated 2019).)
